Marks after values point to notes of the source that are not given here.
Key:
[1] = test system: JeKo-1 cells; assay: Tumor cell growth inhibition by MTS method, JeKo-1; type: cell-based; conditions: 5 days of culture; for inhibition at 10 µM: read-out: cell growth inhibition rate of compounds at 10 μM
Method: III. Determination of IC50 Value of Compound for Inhibiting Tumor Cell Growth by MTS Method
1. Cell plating: cells in logarithmic growth phase were counted and inoculated in a 96-well plate (20000 cells per well).
2. Administrating agent to cell: 10 mM compound mother solution in DMSO was subjected to 3 fold-gradient dilution, to set 8 concentrations, which were then added to various wells, with three replicates for each concentration, and three blank wells (only culture medium) and three negative controls (containing 0.1% DMSO) on each plate.
3. […] The OD value at 490 nm was measured with microplate reader OD490. The cell growth inhibition rate was calculated by the following formula: Cell growth inhibition rate %=1−(ODexperimental group−ODblank group)/(ODnegative group−ODblank group)×100%
The semi-inhibitory concentration IC50 of the compound acting on cell growth was calculated using GradPad Prism 5 software according to the measured cell growth inhibition rate.
In the following table it lists the IC50 value or the inhibition rates of some compounds at 10 μM against JeKo-1 cells

[2] = test system: MDA-MB-231 cells; assay: Vacuolation of MDA-MB-231 cells caused by inhibition of compounds on PIKfyve (microscopy); type: cell-based; conditions: MDA-MB-231 cells
Source text: I. Determination of Vacuolation of MDA-MB-231 Cells Caused by Inhibition of Compounds on PIKfyve
When the activity of pikfyve kinase is inhibited, vacuoles will be produced in cytoplasm. By observing the number of vacuoles under a microscope, the ability of compounds to inhibit the activity of pikfyve kinase can be known.
1. Cell plating: cells in logarithmic growth phase were made into a single cell suspension, counted with a cell counter and diluted to a cell concentration of about 2×10^5/mL. Then, the cells were inoculated into a 12-well plate, and cultured in a 37° C., 5% CO2 incubator.
3. Vacuolation test: after 24 and 48 hours of culture, photos were taken under an […] to observe the degree of vacuolation.
(In the table, “+” represents the degree of vacuolation; more “+” indicates more obvious vacuolation; “−” represents no vacuolation)

| Structure (SMILES) | cell growth inhibition rate of compounds at 10 μM [1] [%^a] | degree of vacuolation, 1 μM, 24 h [2] | degree of vacuolation, 1 μM, 48 h [2] | degree of vacuolation, 10 μM, 24 h [2] | degree of vacuolation, 10 μM, 48 h [2] | IC50 [1] [µM] | IC50 ([1]; Homo sapiens, JeKo-1, 120 h) [µM] | inhibition at 10 µM ([1]; Homo sapiens, JeKo-1, 120 h) [%] |
| --- | --- | --- | --- | --- | --- | --- | --- | --- |
| Cc1ccc(C(=O)Nc2cccc(C(F)(F)F)c2)cc1Nc1nc(-c2cccnc2)cn2ccnc12 [VI-a-2] | 38.6 | + | + | + | + |  |  |  |
| Cc1ccc(C(=O)Nc2cccc(C(F)(F)F)c2)cc1Nc1cc(-c2cccnc2)nc2c1ccn2C [I-b-4] |  | − | − |  |  | 1.33 |  |  |
| Cc1ccc(NC(=O)c2cccc(C(F)(F)F)c2)cc1Nc1cc(-c2ccncc2)nc2c1ccn2C [I-b-2] |  | − | − | ++ | ++ |  | 1.6 |  |
| Cc1ccc(C(=O)Nc2cccc(C(F)(F)F)c2)cc1Nc1nc(-c2cccnc2)nc2c1ccn2C [II-b-2] |  | + | + | + | + |  | 2.85 |  |
| Cc1ccnc(Nc2nc(-c3cccc(NC(=O)c4ccc(N)nc4)c3)nc3ccsc23)c1 [VII-a-19] |  | − | − | − | − |  | 1.52 |  |
| Cc1ccc(C(=O)Nc2cccc(C(F)(F)F)c2)cc1Nc1nc(-c2cccc(Cl)c2)nc2c1cnn2C [III-b-3] |  | − |  | − |  |  | 4.86 |  |
| O=C(Nc1cccc(C(F)(F)F)c1)c1cccc(Nc2cc(-c3cccnc3)nc3sccc23)c1 [VIII-a-5] |  | − | + | + | + |  | 5.14 |  |
| Cc1ccc(NC(=O)c2cccc(C(F)(F)F)c2)cc1Nc1cc(-c2cccnc2)nc2c1ccn2C [I-b-1] |  | ++ | ++ | +++ | +++ |  | 2.77 |  |
| O=C(Nc1cccc(Nc2cc(-c3ccncc3)nc3sccc23)c1)c1cccc(C(F)(F)F)c1 [VIII-a-2] |  | ++ | ++ | ++ | ++ |  | 3.26 |  |
| Cn1ncc2c(NCc3cccnc3)nc(-c3cccc(NC(=O)Nc4cccc(C(F)(F)F)c4)c3)nc21 [III-b-14] |  | + | + | + | + |  | 6.78 |  |
| Cc1ccc(C(=O)Nc2cccc(C(F)(F)F)c2)cc1Nc1cc(-c2ccncc2)nc2sccc12 [VIII-a-8] |  | − | ++ | − | ++ |  | 2 |  |
| Cc1ccc(C(=O)Nc2cccc(C(F)(F)F)c2)cc1Nc1nc(-c2ccncc2)nc2cc[nH]c12 [V-a-6] |  | ++ | ++ | ++ | ++ |  | 0.987 |  |
| Cc1ccc(NC(=O)c2cccc(C(F)(F)F)c2)cc1Nc1cc(-c2cccnc2)nc2sccc12 [VIII-a-3] |  | ++ | ++ | ++ | ++ |  | 2.01 |  |
| Cc1ccc(NC(=O)c2cccc(C(F)(F)F)c2)cc1Nc1nc(-c2cccnc2)cn2c(Br)cnc12 [VI-b-1] |  |  |  |  |  |  |  | 17.5 |
| Cc1ccc(C(=O)Nc2cccc(C(F)(F)F)c2)cc1Nc1cc(-c2cccnc2)nc2[nH]ccc12 [I-a-20] |  | +++ | +++ | ++++ | ++++ |  | 2.54 |  |
| Cc1ccc(C(=O)Nc2cccc(C(F)(F)F)c2)cc1Nc1nc(-c2cccnc2)cn2ccnc12 [VI-a-6] | 11.3 | − |  | − |  |  |  |  |
| Cc1ccc(C(=O)Nc2cccc(C(F)(F)F)c2)cc1Nc1cc(-c2cccnc2)nc2c1ccn2C [I-b-3] |  | + | + | ++ | ++ | 2.68 |  |  |

| Structure (SMILES) | cell growth inhibition rate of compounds at 10 μM [1] [%^a] | degree of vacuolation, 1 μM, 24 h [2] | degree of vacuolation, 1 μM, 48 h [2] | degree of vacuolation, 10 μM, 24 h [2] | degree of vacuolation, 10 μM, 48 h [2] | IC50 [1] [µM] | IC50 ([1]; Homo sapiens, JeKo-1, 120 h) [µM] | inhibition at 10 µM ([1]; Homo sapiens, JeKo-1, 120 h) [%] |
| --- | --- | --- | --- | --- | --- | --- | --- | --- |
| Cc1ccc(Nc2nc(-c3cccc(NC(=O)c4ccc(N)nc4)c3)nc3ccsc23)cn1 [VII-a-16] |  | + | + | + | + |  | 0.824 |  |
| Cc1ccc(C(=O)Nc2cccc(F)c2)cc1Nc1nc(-c2cccnc2)cn2c(Br)cnc12 [VI-b-5] |  |  |  |  |  |  |  | 16.9 |
| Cc1ccnc(Nc2nc(-c3cccc(NC(=O)c4cccc(C(F)(F)F)c4)c3)nc3ccsc23)c1 [VII-a-18] |  | + | + | + | + |  | 2.56 |  |
| Cc1ccc(C(=O)Nc2cccc(C(F)(F)F)c2)cc1Nc1nc(-c2cccnc2)c2cnn(C)c2n1 [III-c-1] |  |  |  |  |  |  | 2 |  |
| Cc1ccc(C(=O)Nc2cccc(C(F)(F)F)c2)cc1Nc1nc(-c2ccncc2)nc2[nH]cnc12 [IV-a-2] |  | + | ++ | + | ++ |  |  | 19 |
| Cc1ccc(NC(=O)c2cccc(C(F)(F)F)c2)cc1Nc1nc(-c2cccnc2)cn2ccnc12 [VI-a-1] |  |  |  |  |  |  | 7.49 |  |
| Cc1cn(-c2cc(NC(=O)c3ccc(C)c(Nc4nc(-c5ccncc5)nc5cc[nH]c45)c3)cc(C(F)(F)F)c2)cn1 [V-a-8] |  | + | + | ++ | ++ |  |  |  |
| Cc1cc(NC(=O)c2ccc(C)c(Nc3cc(-c4cccnc4)nc4[nH]ccc34)c2)n(C)n1 [I-a-45] |  | − | + | + | + |  |  |  |
| Cc1ccc(NC(=O)c2cccc(C(F)(F)F)c2)cc1Nc1nc(-c2cccnc2)nc2cc[nH]c12 [V-a-3] |  | ++ | ++ | + | + |  |  |  |
| Cc1cc(NS(=O)(=O)c2ccccc2)ccc1Nc1nc(-c2cccnc2)c2[nH]ccc2n1 [V-c-35] |  | − | − | + | + |  |  |  |
| Cc1ccc(NC(=O)c2cccc(C(F)(F)F)c2)cc1Nc1nc(-c2cccnc2)cn2ccnc12 [VI-a-5] |  | − | + | − | + |  |  |  |
| Cc1ccc(NC(=O)c2ccc(CN3CCOCC3)c(C(F)(F)F)c2)cc1Nc1nc(-c2cccnc2)cn2c(Br)cnc12 [VI-b-6] |  | − | − | − | − |  |  |  |
| Cc1cn(-c2cc(NC(=O)c3ccc(C)c(Nc4nc(-c5cccnc5)nc5cc[nH]c45)c3)cc(C(F)(F)F)c2)cn1 [V-a-7] |  | − | − | + | + |  |  |  |
| Cc1ccc(C(=O)Nc2cc(C(F)(F)F)cc(C(F)(F)F)c2)cc1Nc1cc(-c2cccnc2)nc2[nH]ccc12 [I-a-31] |  | − | − | − | − |  |  |  |
| COc1ccc(Br)cc1NC(=S)Nc1cccc(-c2nc(NCc3cccnc3)c3c(ccn3C)n2)c1 [V-b-30] |  | − | − | + | + |  |  |  |
| Cc1ccc(C(=O)Nc2cccc(C(F)(F)F)c2)cc1Nc1nc(-c2cccnc2)cn2c(Br)cnc12 [VI-b-2] |  |  |  |  |  |  |  | 14.7 |
| Cc1ccc(C(=O)Nc2cccc(OC(F)(F)F)c2)cc1Nc1nc(-c2ccncc2)nc2[nH]cnc12 [IV-a-7] |  | − | − | + | ++ |  |  |  |

— patent US11352354B2, “Substituted penta-fused hexa-heterocyclic compounds, preparation method therefor, drug combination and use thereof” (Xiamen University, priority 2017, dated 2022)
